Experimental data published in patent US8680159B2, “Bradykinin 1 receptor modulating compounds” (Gruenenthal GmbH, priority 2010, dated 2014).
Where two headings read alike, the source gives them in different places.

Experiments:
[1] = molecular target: T1, B1R receptor of the rat (CHO K1 cells stably transfected with the B1R gene of the rat) (Rattus norvegicus, UniProt P97583); assay: Functional study on the bradykinin receptor 1 (B1R), Ca2+ fluorescence (Fluo-4) FLIPR/Novostar assay, rB1R cells; type: cell-based; settings: for inhibition at 10 µM: CHO-K1, 10 μM
T1 construct: expressed in transfected cells; host or cells: CHO K1 cells (Chinese hamster ovary), stably transfected
T1 sequence (P97583 1-337): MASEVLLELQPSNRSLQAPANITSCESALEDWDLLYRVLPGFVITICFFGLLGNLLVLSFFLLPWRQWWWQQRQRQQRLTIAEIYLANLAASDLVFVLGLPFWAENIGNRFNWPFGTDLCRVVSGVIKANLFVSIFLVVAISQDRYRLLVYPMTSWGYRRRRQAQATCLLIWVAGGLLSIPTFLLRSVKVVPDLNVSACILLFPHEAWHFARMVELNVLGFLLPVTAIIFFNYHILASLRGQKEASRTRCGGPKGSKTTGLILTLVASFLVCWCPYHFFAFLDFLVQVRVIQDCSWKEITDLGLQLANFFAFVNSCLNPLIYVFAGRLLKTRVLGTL
Outline: (§1)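 Test compounds (10 μM) were added first and the Ca2+ rise was scored as % activation against Lys-Des-Arg9-bradykinin (≥50 nM, human) or Des-Arg9-bradykinin (≥1 μM, rat). After 6-20 min, the matching agonist was given at its EC80, and % inhibition relative to maximal achievable inhibition was calculated.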

[2] = molecular target: T2, human B1R receptor (CHO K1 cells stably transfected with the human B1R gene) (Homo sapiens, UniProt P46663); assay: Functional study on the bradykinin receptor 1 (B1R), Ca2+ fluorescence (Fluo-4) FLIPR/Novostar assay, hB1R cells; type: cell-based
T2 construct: expressed in transfected cells; host or cells: CHO K1 cells (Chinese hamster ovary), stably transfected
T2 sequence (P46663 1-353): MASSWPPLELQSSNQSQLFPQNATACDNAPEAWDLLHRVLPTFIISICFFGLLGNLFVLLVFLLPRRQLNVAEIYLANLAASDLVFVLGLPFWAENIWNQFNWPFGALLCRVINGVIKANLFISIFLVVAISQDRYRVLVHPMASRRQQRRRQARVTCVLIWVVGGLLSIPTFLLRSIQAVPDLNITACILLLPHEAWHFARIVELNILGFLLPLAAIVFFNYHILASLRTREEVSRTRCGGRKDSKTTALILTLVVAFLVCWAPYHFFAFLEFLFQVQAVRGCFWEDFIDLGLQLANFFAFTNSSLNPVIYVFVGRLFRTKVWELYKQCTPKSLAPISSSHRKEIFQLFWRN
Outline: as §1

[3] = CHO-K1, read-out: % Inhibition (h-B1R) at 10 μM
[4] = read-out: % Inhibition (r-B1R) at 10 μM
[5] = read-out: % inhibition (rat B1R) at 10 μM
[6] = CHO-K1, read-out: % inhibition (human B1R) at 10 μM

inhibition at 10 µM [2, 3] [%] | inhibition at 10 µM [1, 4] [%] | inhibition at 10 µM [1, 5] [%] | inhibition at 10 µM [2, 6] [%] | SMILES | other results
100 |  |  |  | CN(C(=O)NC1CCOc2ccc(C(=O)N(C)C3CCN(c4ccncc4)CC3)cc21)c1ccccc1Cl (stereo not shown) [CC_H-57, 4-[[(2-Chlorophenyl)-methyl-carbamoyl]amino]-N-methyl-N-(1-pyridin-4-yl-piperidin-4-yl)-3,4-dihydro-2H-chromene-6-carboxylic acid amide] | % Inhibition (r-B1R) at 10 μM ([1]; 10 μM): 101%
99 | 103 |  |  | CN(C(=O)c1ccc2c(c1)C(NC(=O)CCC1CCCC1)CC2)C1CCN(c2ccncc2)CC1 (stereo not shown) [CC_H-59, 3-(3-Cyclopentyl-propanoylamino)-N-methyl-N-(1-pyridin-4-yl-piperidin-4-yl)-2,3-dihydro-1H-indene-5-carboxylic acid amide] | 
100 | 80 |  |  | CN(C(=O)c1ccc2c(c1)CCC2NS(=O)(=O)Cc1ccccc1C(F)(F)F)C1CCN(c2ccncc2)CC1 (stereo not shown) [CC_H-61, N-Methyl-N-(1-pyridin-4-yl-piperidin-4-yl)-1-[[[2-(trifluoromethyl)-phenyl]-methylsulfonyl]amino]-2,3-dihydro-1H-indene-5-carboxylic acid amide] | 
84 | 101 |  |  | CN(C(=O)c1ccc2c(c1)C(NC(=O)c1c(Cl)cccc1C(F)(F)F)CC2)C1CCN(c2ccc3cnccc3c2)CC1 (stereo not shown) [CC_H-62, 3-[[2-Chloro-6-(trifluoromethyl)-benzoyl]amino]-N-(1-isoquinolin-6-yl-piperidin-4-yl)-N-methyl-2,3-dihydro-1H-indene-5-carboxylic acid amide] | 
99 | 103 |  |  | CN(C(=O)c1ccc2c(c1)C(NC(=O)c1cc(F)ccc1Cl)CCO2)C1CCN(c2ccncc2)CC1 (stereo not shown) [CC_H-63, 4-[(2-Chloro-5-fluoro-benzoyl)amino]-N-methyl-N-(1-pyridin-4-yl-piperidin-4-yl)-3,4-dihydro-2H-chromene-6-carboxylic acid amide] | 
96 | 87 |  |  | CN(C(=O)c1ccc2c(c1)CCC2NC(=O)c1ccccc1Cl)C1CCN(c2ccncc2)CC1 (stereo not shown) [CC_H-68, 1-[(2-Chloro-benzoyl)amino]-N-methyl-N-(1-pyridin-4-yl-piperidin-4-yl)-2,3-dihydro-1H-indene-5-carboxylic acid amide] | 
99 |  |  |  | CN(C(=O)c1ccc2c(c1)C(N(C)C(=O)C1CCCCC1)CC2)C1CCN(c2ccncc2)CC1 (stereo not shown) [CC_H-69, 3-(Cyclohexanecarbonyl-methyl-amino)-N-methyl-N-(1-pyridin-4-yl-piperidin-4-yl)-2,3-dihydro-1H-indene-5-carboxylic acid amide] | % Inhibition (r-B1R) at 10 μM ([1]; 10 μM): 104%
 |  | 102 | 100 | O=C(NCCC1CCN(c2ccncc2)CC1)c1ccc2c(c1)C(NC(=O)c1ccccc1Cl)CC2 (stereo not shown) [Example H-01, 3-[(2-Chloro-benzoyl)amino]-N-[2-(1-pyridin-4-yl-piperidin-4-yl)-ethyl]-2,3-dihydro-1H-indene-5-carboxylic acid amide] | 
 |  | 96 | 43 | O=C(NC1CCN(c2ccncc2)CC1)c1ccc2c(c1)[C@H](NC(=O)c1ccccc1Cl)CC2 [Example H-07, (3R)-3-[(2-Chloro-benzoyl)amino]-N-(1-pyridin-4-yl-piperidin-4-yl)-2,3-dihydro-1H-indene-5-carboxylic acid amide] | 

The next lines start with the compound.

SMILES | inhibition at 10 µM [2, 3] [%] | inhibition at 10 µM [1, 4] [%] | inhibition at 10 µM [1, 5] [%] | inhibition at 10 µM [2, 6] [%] | other results
CN(C(=O)c1ccc2c(c1)CCC2NC(=O)C1CCCCC1)C1CCN(c2ccncc2)CC1 (stereo not shown) [CC_H-58, 1-(Cyclohexanecarbonylamino)-N-methyl-N-(1-pyridin-4-yl-piperidin-4-yl)-2,3-dihydro-1H-indene-5-carboxylic acid amide] | 96 | 77 |  |  | 
CN(C(=O)c1ccc2c(c1)CCC2NC(=O)c1cc(F)ccc1Cl)C1CCN(c2ccncc2)CC1 (stereo not shown) [CC_H-64, 1-[(2-Chloro-5-fluoro-benzoyl)amino]-N-methyl-N-(1-pyridin-4-yl-piperidin-4-yl)-2,3-dihydro-1H-indene-5-carboxylic acid amide] | 100 | 87 |  |  | 
CN(C(=O)c1ccc2c(c1)CCC2NC(=O)CCC1CCCC1)C1CCN(c2ccncc2)CC1 (stereo not shown) [CC_H-65, 1-(3-Cyclopentyl-propanoylamino)-N-methyl-N-(1-pyridin-4-yl-piperidin-4-yl)-2,3-dihydro-1H-indene-5-carboxylic acid amide] | 98 | 48 |  |  | 
Cc1cccc(C)c1C(=O)NC1CCc2cc(C(=O)N(C)C3CCN(c4ccncc4)CC3)ccc21 (stereo not shown) [CC_H-66, 1-[(2,6-Dimethyl-benzoyl)amino]-N-methyl-N-(1-pyridin-4-yl-piperidin-4-yl)-2,3-dihydro-1H-indene-5-carboxylic acid amide] | 99 | 86 |  |  | 
CN(C(=O)c1ccc2c(c1)CCC2NC(=O)c1cccc(Cl)c1Cl)C1CCN(c2ccncc2)CC1 (stereo not shown) [CC_H-67, 1-[(2,3-Dichloro-benzoyl)amino]-N-methyl-N-(1-pyridin-4-yl-piperidin-4-yl)-2,3-dihydro-1H-indene-5-carboxylic acid amide] | 100 | 98 |  |  | 
CN(C(=O)c1ccc2c(c1)C(N(C)C(=O)CCC1CCCC1)CC2)C1CCN(c2ccncc2)CC1 (stereo not shown) [CC_H-70, 3-(3-Cyclopentyl-propanoyl-methyl-amino)-N-methyl-N-(1-pyridin-4-yl-piperidin-4-yl)-2,3-dihydro-1H-indene-5-carboxylic acid amide] | 100 | 103 |  |  | 
O=C(NCC1CCN(c2ccncc2)CC1)c1ccc2c(c1)[C@H](NC(=O)c1ccccc1Cl)CC2 [Example H-03, (3R)-3-[(2-Chloro-benzoyl)amino]-N-[(1-pyridin-4-yl-piperidin-4-yl)-methyl]-2,3-dihydro-1H-indene-5-carboxylic acid amide] |  |  | 108 | 15 | 
O=C(NC1CCN(c2ccc(C(F)(F)F)cn2)C1)c1ccc2c(c1)[C@H](NC(=O)c1ccccc1Cl)CC2 (stereo partly drawn) [Example H-04, (3R)-3-[(2-Chloro-benzoyl)amino]-N-[1-[5-(trifluoromethyl)-pyridin-2-yl]-pyrrolidin-3-yl]-2,3-dihydro-1H-indene-5-carboxylic acid amide] |  |  | 47 | 21 | 
CN(C(=O)c1ccc2c(c1)[C@H](NC(=O)c1ccccc1Cl)CC2)C1CCN(c2ccncc2)CC1 [Example H-06, (3R)-3-[(2-Chloro-benzoyl)amino]-N-methyl-N-(1-pyridin-4-yl-piperidin-4-yl)-2,3-dihydro-1H-indene-5-carboxylic acid amide] |  |  | 102 | 100 | 
O=C(N[C@H]1CCN(C2CCN(C3CC3)CC2)C1)c1ccc2c(c1)[C@H](NC(=O)c1ccccc1Cl)CC2 [Example H-09, (3R)-3-[(2-Chloro-benzoyl)amino]-N-[(3S)-1-(1-cyclopropyl-piperidin-4-yl)-pyrrolidin-3-yl]-2,3-dihydro-1H-indene-5-carboxylic acid amide] |  |  | 83 | 38 | 
O=C(NCC1CCCN(c2ccncc2)C1)c1ccc2c(c1)[C@H](NC(=O)c1ccccc1Cl)CC2 (stereo partly drawn) [Example H-10, (3R)-3-[(2-Chloro-benzoyl)amino]-N-[(1-pyridin-4-yl-piperidin-3-yl)-methyl]-2,3-dihydro-1H-indene-5-carboxylic acid amide] |  |  | 97 | 18 | 
CN(C(=O)c1ccc2c(c1)CC[C@H]2N1Cc2cccc(Cl)c2C1=O)C1CCN(c2ccncc2)CC1 [Example H-11, (1R)-1-(4-Chloro-3-oxo-1,2-dihydro-isoindol-2-yl)-N-methyl-N-(1-pyridin-4-yl-piperidin-4-yl)-2,3-dihydro-1H-indene-5-carboxylic acid amide] |  |  | 49 | 99 | 
CN(C(=O)c1ccc2c(c1)[C@H](N1Cc3cccc(Cl)c3C1=O)CC2)C1CCN(c2ccncc2)CC1 [Example H-12, (3R)-3-(4-Chloro-3-oxo-1,2-dihydro-isoindol-2-yl)-N-methyl-N-(1-pyridin-4-yl-piperidin-4-yl)-2,3-dihydro-1H-indene-5-carboxylic acid amide] |  |  | 100 | 100 | 
CN1CCN(C2CCC(NC(=O)c3ccc4c(c3)[C@H](NC(=O)c3ccccc3Cl)CC4)C(C)(C)C2)CC1 (stereo partly drawn) [Example H-14, (3R)-3-[(2-Chloro-benzoyl)amino]-N-[2,2-dimethyl-4-(4-methyl-piperazin-l-yl)-cyclohexyl]-2,3-dihydro-1H-indene-5-carboxylic acid amide] |  |  |  |  | % inhibition (rat B1R) at 10 μM ([1]; 10 μM): 76%; % inhibition (human B1R) at 10 μM [2]: 64%
